The subject of series [1] is K562 cell line (leukemia). In words: NCI-60 GI50 determination, K562. The class given is cell-based. The conditions noted are these: Homo sapiens, NCI Developmental Therapeutics Program in-vitro testing, 48 h. The method, then: (§1) According to the National Cancer Institute, Bethesda, Md. (the protocol of the Drug Evaluation Branch), the effects of compounds are measured as follows: Cell suspensions are diluted to a target cell density of 5000-40,000 cells per well (based on cell growth characteristics) in a 96-well microtiter plates. The test compounds were evaluated at five concentrations (10-fold dilutions) with the highest concentration being 100 μM. The incubation period was 48 h under 5% carbon dioxide atmosphere and 100% humidity. A sulforhodamine B assay was used to assay the cells. Optical densities of the wells were read by a plate reader the optical densities were processed into GI50 (the concentration that causes 50% growth inhibition).
(§2) The NCI renamed the IC50 value, the concentration of compound that causes 50% growth inhibition, as follows.
(§3) GI50=100×(T−T0)/(C−T0)=50, where T=the optical density of the test well after a 48-h period of exposure to test drug, T0=the optical density at time zero, C=the control optical density. The control is the well not treated with test agent (https://dtp.cancer.gov/databases_tools/docs/compare/compare_methodology.htm).

The subject of series [2] is EKVX (NSCLC). In words: NCI-60 GI50 determination, EKVX. The series is classed as cell-based. To be noted: Homo sapiens, NCI Developmental Therapeutics Program in-vitro testing, 48 h. The method, then: as §1, §2, §3
The test system of series [3] is KM12 (colon and driven by TrkA kinase). The series is described as follows: NCI-60 GI50 determination, KM12. The class given is cell-based. The conditions noted are these: Homo sapiens, NCI Developmental Therapeutics Program in-vitro testing, 48 h. Here is the method: as §1, §2, §3
The test system of series [4] is some lung and colon cancers. The series is described as follows: NCI-60 potency comparison on lung and colon cancers. The class given is cell-based. To be noted: more potently than HSL212. The method, then: as §1, §2, §3
Series [5] has as its system cell lines harboring RET solvent front mutations. In words: Inhibition of selpercatinib and pralsetinib-resistant cell lines. The class given is cell-based.
The nature of series [6]: Tolerability in mice. The series is classed as in vivo.
The test system of series [7] is cell line harboring RET G810R. In words: Inhibition of cell line harboring RET G810R. The conditions noted are these: under similar conditions. The class given is cell-based.
For series [8], the system named is MiaPaCa-2. The series is described as follows: MIA PaCa-2 pancreatic cancer cell growth inhibition (CellTitre Blue viability). The class given is cell-based. The conditions noted are these: Homo sapiens, pancreatic cancer cell line, 72 hours. Here is the method:
Cell Culture: MIA PaCa-2 cells were cultured in RPMI media supplemented with 10% fetal bovine serum, 1% GlutaMax Supplement (GIBCO™), 1% Penicillin-Streptomycin (GIBCO™). Cells were seeded in a 96-well plate at 1.1×10^4 cells/mL. Cells were incubated at […] for 24 hours after which plates were treated in triplicates with 10 uL of compound (0.6 μM in DMSO) that was further diluted in the same media (5 μL of compound into 145 μL of media). For IC50 compounds were tested at 9 different concentrations, initial concentration of 0.6 μM in DMSO and subsequently diluted by a third for the other 8 concentrations. This was incubated at […] for 72 hours after which 10 uL of The CellTitre Blue Cell Viability Assay (Promega, Madison Wis.) was added to each well and incubated at […] for 3 hours. Plates were read on a CYTATION™ 5 Cell Imaging Multi-Mode Reader (BioTek). Appropriate controls were used. Graphed using GraphPadPrism 5.0 Software.

Series [9] in a line: Oral bioavailability. To be noted: in vivo.
Series [10] has as its system tumor harboring solvent front RET810 mutation. In words: Growth of tumor harboring solvent front RET810 mutation. The class given is in vivo, mice. To be noted: HSL476 at 25 mg/Kg (daily).

As to `Cc1nc2cncc(C#Cc3cncc(C(=O)Nc4ccc(CN5CCN(C)CC5)c(C(F)(F)F)c4)c3)c2nc1C` [HSL211, 5-((2,3-dimethylpyrido[3,4-b]pyrazin-8-yl)ethynyl)-N-(4-((4-methylpiperazin-1-yl)methyl)-3-(trifluoromethyl)phenyl)nicotinamide], the GI50 is under 5 nM in [1], 484 nM in [2] and under 5 nM in [3]. The “Potency relative to HSL212 on some lung and colon cancers” value in series [4] is listed as about 100 ×.

As for `CN1CCN(Cc2ccc(NC(=O)c3cncc(C#Cc4cncc5nccnc45)c3)cc2C(F)(F)F)CC1` [HSL212, N-(4-((4-methylpiperazin-1-yl)methyl)-3-(trifluoromethyl)phenyl) (pyrido[3,4-b]pyrazin-8-ylethynyl)nicotinamide], the GI50 in series [1] is under 5 nM; in series [2], over 50000 nM; in series [3], 136 nM.

With `Cc1nc2cnc(N)c(C#Cc3cncc(C(=O)Nc4ccc(CN5CCN(C)CC5)c(C(F)(F)F)c4)c3)c2nc1C` [HSL476, 5-((7-amino-2,3-dimethylpyrido[3,4-b]pyrazin-8-yl)ethynyl)-N-(4-((4-methylpiperazin-1-yl)methyl)-3-(trifluoromethyl)phenyl)nicotinamide], the IC50 in [5] was under 20 nM; in series [7] it was 18 nM; in series [8] it was 25 nM. Further, the Tolerability result in [6] is listed as “well tolerated”. Besides, the Oral bioavailability result in series [9] is given as “orally bioavailable”. The “Effect on growth of tumor harboring solvent front RET810 mutation” value in series [10] was “could reduce growth tumor”.

`COc1ccc(CN2C3CC2CN(c2ccc(-c4cc(OCC(C)(C)O)cn5ncc(C#N)c45)cn2)C3)cn1` [Selpercatinib, reference compound] came in with an IC50 in series [7] of 2620 nM. The “Effect on growth of tumor harboring solvent front RET810 mutation” value in [10] is listed as “ineffective”.

Take `Cc1ccc(C(=O)Nc2ccc(CN3CCN(C)CC3)c(C(F)(F)F)c2)cc1C#Cc1cnc2cccnn12` [ponatinib]: the IC50 in [7] came out at 77 nM.

`CO[C@]1(C(=O)N[C@@H](C)c2ccc(-n3cc(F)cn3)nc2)CC[C@H](c2nc(C)cc(Nc3cc(C)[nH]n3)n2)CC1` [pralsetinib]: the IC50 in [7] came out at 7320 nM.

The values above are taken from patent US20230219934A1, “2,3-DISUBSTITUTED PYRIDO[3,4-B]PYRAZINE-CONTAINING COMPOUNDS AS KINASE INHIBITORS” (Purdue Research Foundation, priority 2020, published 2023).
